Consider one molecule from patent US11986462B2, “Use of tacrolimus in preparation of medicament for initiating tissue regeneration function” (priority 2020, dated 2024).

For data set [1], the system named is calcineurin. Nature of the data set: Determination of calcineurin activity in caudal fin tissues (malachite green, RII peptide substrate). Type of data set: in vivo, zebrafish. As to conditions: 3 μM tacrolimus in culture solution, vs DMSO control group non-regenerative tissues. On the procedure: 4. […] Free phosphate in the sample was removed, the phosphorylated RII peptide was added, and the sample was incubated at 30° C. for 30 min. Malachite green as a phosphate indicator was added, and the amount of free phosphate in the sample was determined using a SpectraMax® iD3 multi-mode microplate reader (Molecular Devices, USA). The calcineurin activity was normalized to a total protein concentration.

The conditions of data set [2]: cited from earlier work.
In data set [3] the test system is distal caudal fin tissue of a zebrafish. Nature of the data set: Tissue regeneration experiment of distal caudal fin of zebrafish (wound model). Type of data set: in vivo. As to conditions: 3 μM tacrolimus in culture solution, adult zebrafish, 1, 3 and 5 days after amputation, vs DMSO control. How it is done:
1. Experimental fish lines and culturing method are as follows: a wild-type (AB) fish was used as an experimental fish, stored in a flowing water tank at 28±0.5° C. with a pH=7±0.5, a conductivity of an aquaculture water was […]; and a photoperiod was 14 h of lighting and 10 h of darkness. Fresh sandworms were fed three times a day. Raising was conducted in accordance with the guidelines of the Ministry of Science and Technology of the People's Republic of China on the cultivation of experimental animals (2006); all fishes were kept under standard laboratory conditions. 2. Wound model construction is as follows: an adult zebrafish was lightly anesthetized in an anesthetic supplemented with tricaine and placed in a 1.5 g/100 mL agarose tank. A tissue with a length of 2-3 joints and a width of two fin rays on caudal fin surface was excavated using a scalpel blade; a hole was exposed on the caudal fin surface to form a damaged tissue containing a proximal wound and a distal wound. Proximal regenerative tissues were daily removed to prevent the hole from being filled. A regeneration status of the caudal fin was imaged and recorded using a Zeiss Discovery […] microscope (Carl Zeiss, Germany). 3. […]

For data set [4] the following is noted: in the human body; cited from earlier work.

In general, half-life refers to the time in which the quantity being followed falls by half.

Take `C=CC[C@@H]1/C=C(\C)C[C@H](C)C[C@H](OC)[C@H]2O[C@@](O)(C(=O)C(=O)N3CCCC[C@H]3C(=O)O[C@H](/C(C)=C/[C@@H]3CC[C@@H](O)[C@H](OC)C3)[C@H](C)[C@@H](O)CC1=O)[C@H](C)C[C@@H]2OC` [tacrolimus, Tacrolimus]: the “calcineurin activity in tissue, normalized to total protein concentration” value in data set [1] is recorded as “lower than that of the non-regenerative tissues”. The “stability in aqueous solution” value in data set [2] is “extremely-unstable in aqueous solution and can be rapidly degraded”. Besides, in data set [3], the “regeneration of non-regenerative distal caudal fin tissue” value is recorded as “the distal tissue regeneration was initiated”. The half-life in data set [4] was 10.7 h.
